In assay [1] the test system is HSV-1(F) or HSV-2(G). In words: In vitro HSV inactivation, plaque assay on Vero cells. To be noted: room temperature, in the dark, up to 60 minutes. It is filed as cell-based, herpes simplex virus. The protocol: Either HSV-1(F) or HSV-2(G) (10^7 pfu) was mixed with 1 ml of porphyrin at the concentration indicated in Dulbecco's modified Eagle's medium (DME) with 1% newborn calf serum. All assays were performed in duplicate. All tubes were wrapped in foil to keep out light, and ambient room light was reduced as much as was practicable. Virus and porphyrin were incubated together at room temperature for times up to 60 minutes (Table 2). Following incubation, 10 fold serial dilutions were performed in DME with 1% newborn serum, using tubes wrapped in foil. Virus was diluted 20,000 fold and plated on Vero cells. Following a 2 hour incubation with the cells, the inoculum was removed and cells were overlaid with DME with 1% newborn calf serum and 0.2% human gamma globulin. Cells were fixed and stained, and plaques counted, 2 days after infection.

Assay [2] addresses 89.6 Env (Human immunodeficiency virus type 1 group M subtype B, UniProt Q73372). In kind it is cell-based, HIV-1.
In assay [3] the target is T1, HIV-1 Env protein (HXB2 Env) (Human immunodeficiency virus type 1 group M subtype B, UniProt P04578).
T1 construct: expressed in transfected cells; host or cells: 293T cells transfected with pIIIenv3-1 plus pCMVTAT; cocultured with 3T3 cells expressing CD4 and CXCR4
It is filed as cell-based.

Assay [4] relates to HIV-1 IIIB. As to the kind of experiment: Screening for virucidal activity against HIV-1 IIIB, MAGI cell assay. To be noted: for activity against HIV in words: MAGI screening assay, HIV-1 IIIB; for inhibition of HIV-1 IIIB (percent virus inactivated), screening assay: 50 μg/ml, 1 hr in the dark, diluted 10-fold, MAGI cells, without removal of free compound.
For assay [5], the target named is T2, binding of HIV-1 IIIB gp120 to CD4 (Human immunodeficiency virus type 1 group M subtype B, UniProt P04578).
T2 construct: The recombinant IIB gp120 protein (baculovirus-expressed) was obtained from Intracel; purchased Intracel (Cambridge, Mass.) for gp120; host or cells: baculovirus-expressed (gp120)
As to the kind of experiment: gp120-CD4 binding assay (ELISA). To be noted: 1 hr at room temperature. The method, then: To investigate the possible effect of porphyrin compounds on binding of HIV-1 IIIB gp120 to CD4, a gp120 CD4 binding assay was developed. The assay was developed as a modification of a capture gp120 ELISA kit (Intracel Corporation). Briefly, a 96-well plate was coated with soluble CD4 and 0.5 μg of HIV-1 IIIB gp120 per well was incubated in the presence or absence of test compounds for 1 hr at room temperature. After four washes with buffer to remove unbound proteins, the bound gp120 was detected by anti-gp120 peroxidase-conjugated antibodies and quantitated by the protocol provided by the manufacturer.

For assay [6], the target named is IIIB Env of HIV 1 (Human immunodeficiency virus type 1 group M subtype B, UniProt P03375). In kind it is cell-based.

The record followed here is patent publication US20050090428A1, “Porphyrins with virucidal activity” (priority 2002, published 2005).

89.6 Env, sequence (Q73372 32-719 limits assumed): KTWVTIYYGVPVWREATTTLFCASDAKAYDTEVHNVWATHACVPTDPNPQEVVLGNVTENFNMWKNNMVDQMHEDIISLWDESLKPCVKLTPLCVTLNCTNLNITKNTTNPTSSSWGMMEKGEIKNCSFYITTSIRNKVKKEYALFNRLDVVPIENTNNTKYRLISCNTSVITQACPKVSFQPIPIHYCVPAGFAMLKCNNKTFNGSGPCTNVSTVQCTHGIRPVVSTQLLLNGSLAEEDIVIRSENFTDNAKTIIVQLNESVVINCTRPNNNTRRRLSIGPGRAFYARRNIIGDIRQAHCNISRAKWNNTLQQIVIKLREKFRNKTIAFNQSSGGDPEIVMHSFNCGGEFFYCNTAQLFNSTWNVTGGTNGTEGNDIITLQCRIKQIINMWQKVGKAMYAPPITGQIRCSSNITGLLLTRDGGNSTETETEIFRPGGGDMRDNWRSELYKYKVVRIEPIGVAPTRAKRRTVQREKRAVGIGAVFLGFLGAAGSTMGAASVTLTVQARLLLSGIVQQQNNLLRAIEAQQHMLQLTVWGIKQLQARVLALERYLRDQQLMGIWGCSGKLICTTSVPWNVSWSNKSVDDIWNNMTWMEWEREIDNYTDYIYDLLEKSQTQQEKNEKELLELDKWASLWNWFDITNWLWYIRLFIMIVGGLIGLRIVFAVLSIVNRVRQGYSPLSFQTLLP
89.6 Env, sequence (Q73372 509-719 partner limits assumed): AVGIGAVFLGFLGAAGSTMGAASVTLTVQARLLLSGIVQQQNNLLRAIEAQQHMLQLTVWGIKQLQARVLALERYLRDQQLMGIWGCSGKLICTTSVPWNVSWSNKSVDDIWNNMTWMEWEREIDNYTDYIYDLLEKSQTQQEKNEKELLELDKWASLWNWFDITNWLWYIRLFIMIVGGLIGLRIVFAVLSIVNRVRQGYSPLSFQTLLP

`O=S(=O)(O)c1ccc(-c2c3nc(c(-c4ccc(S(=O)(=O)O)cc4)c4ccc([nH]4)c(-c4ccc(S(=O)(=O)O)cc4)c4nc(c(-c5ccccc5)c5ccc2[nH]5)C=C4)C=C3)cc1.[Cu]` [TPPS3,Cu]: the “inactivating HSVs” value in assay [1] is reported as “active”.
As for “sulfonated 2,6-difluoroTPP [TPP(2,6-F2)S]”, in assay [2], the “Presence of nuclei in syncytia, VV89.6 envt R5, 23 h” value (“Presence … VV89.6 envt R5, 23 h” below) is listed as 1+/4+ (key: 4+: more than 50% of nuclei are in syncytia; 3+: 30 to 50% of nuclei are in syncytia; 2+: 30 to 10% of nuclei are in syncytia; +: less than 10% of nuclei are in syncytia; −: no syncytia were observed) and the “Presence of nuclei in syncytia, VV89.6 envt X4, 23 h” value (shortened to “Presence … VV89.6 envt X4, 23 h”) is given as 1+/4+ (key: 4+: more than 50% of nuclei are in syncytia; 3+: 30 to 50% of nuclei are in syncytia; 2+: 30 to 10% of nuclei are in syncytia; +: less than 10% of nuclei are in syncytia; −: no syncytia were observed). Besides, the “Presence of nuclei in syncytia, pIIIenv X4, 6 h” value (shortened to “Presence … pIIIenv X4, 6 h”) in assay [3] is “−”. For the same compound, in assay [4], the “activity against HIV in words” value is on record as “most active”. Further, in assay [1], the “inactivating HSVs” value is “active”. Besides, the “inhibition of gp120/CD4 binding in words” value in assay [5] was “completely inhibit binding”.
Regarding “tetrakis(2-fluorosulfonatonatophenyl)porphyrin,Cu”, the “inactivating HSVs” value in assay [1] is “active”.
Turning to `O=S(=O)(O)c1ccc(-c2c3nc(c(-c4ccc(S(=O)(=O)O)cc4)c4ccc([nH]4)c(-c4ccc(S(=O)(=O)O)cc4)c4nc(c(-c5ccc(S(=O)(=O)O)cc5)c5ccc2[nH]5)C=C4)C=C3)cc1` [TPPS4, mesotetra(4-sulfonatophenyl)porphine], in assay [2], the “Presence … VV89.6 envt R5, 23 h” value is on record as 1+/4+ (key: 4+: more than 50% of nuclei are in syncytia; 3+: 30 to 50% of nuclei are in syncytia; 2+: 30 to 10% of nuclei are in syncytia; +: less than 10% of nuclei are in syncytia; −: no syncytia were observed); the “Presence of nuclei in syncytia, VV89.6 envt X4, 6 h” value (from here on “Presence … VV89.6 envt X4, 6 h”) is listed as “−/4+”; the “Presence … VV89.6 envt X4, 23 h” value is on record as “−/4+ (key: 4+: more than 50% of nuclei are in syncytia; 3+: 30 to 50% of nuclei are in syncytia; 2+: 30 to 10% of nuclei are in syncytia; +: less than 10% of nuclei are in syncytia; −: no syncytia were observed)”. The “Presence … pIIIenv X4, 6 h” value in assay [3] is recorded as “−”. Further, the “inhibition of HIV-1 IIIB (percent virus inactivated), screening assay” value in assay [4] came to 93%.
For sulfonated 4-chloroTPP [TPP4ClS], in assay [4], the “inhibition of HIV-1 IIIB (percent virus inactivated), screening assay” value is “about 97%” and the “activity against HIV in words” value is “most active”. The “inhibition of gp120/CD4 binding” value in assay [5] came out at 85%.
For the compound `O=S(=O)(O)c1ccc(-c2c3nc(c(-c4ccc(S(=O)(=O)O)cc4)c4ccc([nH]4)c(-c4ccc(S(=O)(=O)O)cc4)c4nc(c(-c5ccc(S(=O)(=O)O)cc5)c5ccc2[nH]5)C=C4)C=C3)cc1.[Zn]` [TPPS4,Zn], the “inactivating HSVs” value in assay [1] was “active”.
Consider sulfonated 2-fluoroTPP [TPP2FS], for which, in assay [2], the “Presence of nuclei in syncytia, VV89.6 envt R5, 6 h” value (“Presence … VV89.6 envt R5, 6 h” for short) is given as 4+/4+ (key: 4+: more than 50% of nuclei are in syncytia; 3+: 30 to 50% of nuclei are in syncytia; 2+: 30 to 10% of nuclei are in syncytia; +: less than 10% of nuclei are in syncytia; −: no syncytia were observed); the “Presence … VV89.6 envt R5, 23 h” value was 4+/4+ (key: 4+: more than 50% of nuclei are in syncytia; 3+: 30 to 50% of nuclei are in syncytia; 2+: 30 to 10% of nuclei are in syncytia; +: less than 10% of nuclei are in syncytia; −: no syncytia were observed); the “Presence … VV89.6 envt X4, 23 h” value is given as 1+/4+ (key: 4+: more than 50% of nuclei are in syncytia; 3+: 30 to 50% of nuclei are in syncytia; 2+: 30 to 10% of nuclei are in syncytia; +: less than 10% of nuclei are in syncytia; −: no syncytia were observed). The “Presence … pIIIenv X4, 6 h” value in assay [3] was “−”. For the same compound, in assay [4], the “inhibition of HIV-1 IIIB (percent virus inactivated), screening assay” value is “about 80%”. For the same compound, the “inactivating HSVs” value in assay [1] was “active”. In assay [5], the “inhibition of gp120/CD4 binding” value is 81%. Moreover, in assay [6], the “Presence of nuclei in syncytia, VVenvl X4, 6 h” value was “−/4+” and the “Presence of nuclei in syncytia, VVenvl X4, 23 h” value is given as “−/4+ (key: 4+: more than 50% of nuclei are in syncytia; 3+: 30 to 50% of nuclei are in syncytia; 2+: 30 to 10% of nuclei are in syncytia; +: less than 10% of nuclei are in syncytia; −: no syncytia were observed)”.
In the case of `O=S(=O)(O)c1ccc(-c2c3nc(c(-c4ccc(S(=O)(=O)O)cc4)c4ccc([n-]4)c(-c4ccc(S(=O)(=O)O)cc4)c4nc(c(-c5ccc(S(=O)(=O)O)cc5)c5ccc2[n-]5)C=C4)C=C3)cc1.[Pd+2]` [TPPS4,Pd], in assay [2], the “Presence … VV89.6 envt R5, 6 h” value was “−/4+”; the “Presence … VV89.6 envt R5, 23 h” value is listed as “−/4+ (key: 4+: more than 50% of nuclei are in syncytia; 3+: 30 to 50% of nuclei are in syncytia; 2+: 30 to 10% of nuclei are in syncytia; +: less than 10% of nuclei are in syncytia; −: no syncytia were observed)”; the “Presence … VV89.6 envt X4, 6 h” value is given as “−/4+”; the “Presence … VV89.6 envt X4, 23 h” value is “−/4+ (key: 4+: more than 50% of nuclei are in syncytia; 3+: 30 to 50% of nuclei are in syncytia; 2+: 30 to 10% of nuclei are in syncytia; +: less than 10% of nuclei are in syncytia; −: no syncytia were observed)”. The “Presence … pIIIenv X4, 6 h” value in assay [3] is given as “−”.
Take `O=S(=O)(O)c1ccc(-c2c3nc(c(-c4ccc(S(=O)(=O)O)cc4)c4ccc([n-]4)c(-c4ccc(S(=O)(=O)O)cc4)c4ccc([n-]4)c(-c4ccc(S(=O)(=O)O)cc4)c4nc2C=C4)C=C3)cc1.[Ni+2]` [TPPS4,Ni]: in assay [2], the “Presence … VV89.6 envt R5, 6 h” value is reported as “−/1+”; the “Presence … VV89.6 envt X4, 6 h” value was “−/3+”; the “Presence … VV89.6 envt X4, 23 h” value was “−/3+ (key: 4+: more than 50% of nuclei are in syncytia; 3+: 30 to 50% of nuclei are in syncytia; 2+: 30 to 10% of nuclei are in syncytia; +: less than 10% of nuclei are in syncytia; −: no syncytia were observed)”.
Turning to “tetrakis(2-chlorosulfonatophenyl)porphyrin”, the “inactivating HSVs” value in assay [1] is given as “active”.
With `Cc1cc(C)c(S(=O)(=O)O)c(C)c1-c1c2nc(c(-c3c(C)cc(C)c(S(=O)(=O)O)c3C)c3ccc([n-]3)c(-c3c(C)cc(C)c(S(=O)(=O)O)c3C)c3nc(c(-c4c(C)cc(C)c(S(=O)(=O)O)c4C)c4ccc1[n-]4)C=C3)C=C2.[Co+2]` [TMPS,Co], the “inhibition of HIV-1 IIIB (percent virus inactivated), screening assay” value in assay [4] is “about 80%”. Further, the “inactivating HSVs” value in assay [1] is recorded as “active”.
In the case of `O=C(O)c1ccc(-c2c3nc(c(-c4ccc(C(=O)O)cc4)c4ccc([nH]4)c(-c4ccc(C(=O)O)cc4)c4nc(c(-c5ccc(C(=O)O)cc5)c5ccc2[nH]5)C=C4)C=C3)cc1` [TPPC4], the “inactivating HSVs” value in assay [1] is given as “active”.
On to `O=S(=O)(O)c1ccc(C2=C3C=CC(=N3)[C-](c3ccc(S(=O)(=O)O)cc3)C3=NC(=C(c4ccc(S(=O)(=O)O)cc4)c4[cH-]cc(n4)C(c4ccc(S(=O)(=O)O)cc4)=C4C=CC2=N4)C=C3)cc1.[Cu+2]` (stereo not shown) [TPPS4,Cu], for which the “Presence … pIIIenv X4, 6 h” value in assay [3] is given as “−”. In addition, in assay [4], the “inhibition of HIV-1 IIIB (percent virus inactivated), screening assay” value was found to be 97% and the “activity against HIV in words” value is on record as “intermediate levels of activity”. Besides, the “inactivating HSVs” value in assay [1] is reported as “active”. Moreover, in assay [5], the “inhibition of gp120/CD4 binding” value is 80-100%. The “inhibition of HIV-induced cell fusion in words” value in assay [6] is given as “Complete inhibition”.
For the compound `O=S(=O)(O)c1ccc(Cl)c(-c2c3nc(c(-c4c(Cl)ccc(S(=O)(=O)O)c4Cl)c4ccc([nH]4)c(-c4c(Cl)ccc(S(=O)(=O)O)c4Cl)c4nc(c(-c5c(Cl)ccc(S(=O)(=O)O)c5Cl)c5ccc2[nH]5)C=C4)C=C3)c1Cl` [tetrakis(2,6dichlorosulfonatonatophenyl)porphyrin], in assay [1], the “inactivating HSVs” value is “active”.
The same measure, in the same setting: then `O=S(=O)(O)c1ccc(-c2c3nc(c(-c4ccc(S(=O)(=O)O)cc4)c4ccc([nH]4)c(-c4ccc(S(=O)(=O)O)cc4)c4nc(c(-c5ccccc5)c5ccc2[nH]5)C=C4)C=C3)cc1.[Zn]` [TPPS3,Zn], with “active”.
